Test results taken from publication PMC12340637, “Transport of Small Aliphatic Amines by Polyspecific Solute Carriers: Deciphering Structure–Function Relationships” (ACS Pharmacology & Translational Science, 2025).
Like-named read-outs stand apart in the source and are kept apart here. Marks after values point to notes of the source that are not given here. Each block holds one compound with its values, some of them ahead of it.

Assays:
[1] = molecular target: T1, OCT3 (SLC22A3) (Homo sapiens, UniProt O75751); test: Cellular uptake into OCT3-overexpressing HEK293 cells vs EV control cells (HPLC-MS/MS); details: for uptake ratio OCT3 (transporter-overexpressing cells over EV control cells): mean (±SD, N): 2 min, HEK293
T1 sequence (O75751 1-556): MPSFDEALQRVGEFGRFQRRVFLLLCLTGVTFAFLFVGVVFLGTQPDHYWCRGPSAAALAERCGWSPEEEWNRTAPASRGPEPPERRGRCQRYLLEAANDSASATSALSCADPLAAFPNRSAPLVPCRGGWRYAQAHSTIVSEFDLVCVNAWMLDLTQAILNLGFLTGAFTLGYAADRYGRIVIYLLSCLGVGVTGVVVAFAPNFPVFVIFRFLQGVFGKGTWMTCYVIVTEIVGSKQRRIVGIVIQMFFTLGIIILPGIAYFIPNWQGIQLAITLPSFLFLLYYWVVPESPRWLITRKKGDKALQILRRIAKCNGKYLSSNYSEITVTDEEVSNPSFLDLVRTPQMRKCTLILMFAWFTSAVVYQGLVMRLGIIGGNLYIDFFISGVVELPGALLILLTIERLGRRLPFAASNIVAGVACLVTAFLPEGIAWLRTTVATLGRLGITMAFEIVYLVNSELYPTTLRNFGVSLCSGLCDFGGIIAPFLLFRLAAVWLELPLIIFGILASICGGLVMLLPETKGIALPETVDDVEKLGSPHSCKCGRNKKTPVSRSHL

[2] = molecular target: T2, OCT1 (SLC22A1) (Homo sapiens, UniProt O15245); test: Cellular uptake into OCT1-overexpressing HEK293 cells vs EV control cells (HPLC-MS/MS); details: for uptake ratio OCT1 (transporter-overexpressing cells over EV control cells): mean (±SD, N): 2 min, HEK293
T2 sequence (O15245 1-554): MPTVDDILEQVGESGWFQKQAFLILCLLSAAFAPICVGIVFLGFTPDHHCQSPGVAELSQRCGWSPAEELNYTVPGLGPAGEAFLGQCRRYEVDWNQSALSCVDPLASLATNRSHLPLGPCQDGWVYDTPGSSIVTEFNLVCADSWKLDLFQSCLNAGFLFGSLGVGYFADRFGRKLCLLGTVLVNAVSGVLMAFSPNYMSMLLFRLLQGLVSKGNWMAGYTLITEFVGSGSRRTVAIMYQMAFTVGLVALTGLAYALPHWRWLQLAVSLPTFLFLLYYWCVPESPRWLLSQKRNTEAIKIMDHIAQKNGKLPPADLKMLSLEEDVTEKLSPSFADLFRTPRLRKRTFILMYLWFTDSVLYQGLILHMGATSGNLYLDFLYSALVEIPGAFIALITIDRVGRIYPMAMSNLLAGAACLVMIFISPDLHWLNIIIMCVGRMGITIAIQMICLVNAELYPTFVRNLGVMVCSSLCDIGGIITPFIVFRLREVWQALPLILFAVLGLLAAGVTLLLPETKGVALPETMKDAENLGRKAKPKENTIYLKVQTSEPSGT

[3] = molecular target: MATE2-K (SLC47A2) (Homo sapiens, UniProt Q86VL8); test: Cellular uptake into MATE2-K-overexpressing HEK293 cells vs EV control cells (HPLC-MS/MS); details: for uptake ratio MATE2K (transporter-overexpressing cells over EV control cells): mean (±SD, N): 2.5 μM substrate, 1 min, 30 mM NH4Cl preincubation, HEK293
Sequence of MATE2-K (SLC47A2) (Q86VL8 1-566 isoform Q86VL8-3): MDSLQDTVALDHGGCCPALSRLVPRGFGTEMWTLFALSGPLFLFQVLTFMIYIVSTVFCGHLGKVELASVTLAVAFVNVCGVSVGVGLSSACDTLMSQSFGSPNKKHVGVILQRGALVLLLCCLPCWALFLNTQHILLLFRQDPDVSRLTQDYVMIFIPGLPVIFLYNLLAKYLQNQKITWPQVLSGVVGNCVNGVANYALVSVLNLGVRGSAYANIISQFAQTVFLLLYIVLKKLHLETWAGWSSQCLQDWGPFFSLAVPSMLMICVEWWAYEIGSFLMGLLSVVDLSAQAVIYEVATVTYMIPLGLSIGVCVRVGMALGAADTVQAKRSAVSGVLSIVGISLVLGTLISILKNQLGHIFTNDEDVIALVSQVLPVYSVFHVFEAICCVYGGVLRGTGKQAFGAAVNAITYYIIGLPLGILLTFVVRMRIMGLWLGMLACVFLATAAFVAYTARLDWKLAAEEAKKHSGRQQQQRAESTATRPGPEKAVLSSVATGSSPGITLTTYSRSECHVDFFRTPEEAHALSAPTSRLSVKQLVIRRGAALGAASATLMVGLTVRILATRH

[4] = molecular target: T3, OCT2 (SLC22A2) (Homo sapiens, UniProt O15244); test: Cellular uptake into OCT2-overexpressing HEK293 cells vs EV control cells (HPLC-MS/MS); details: for uptake ratio OCT2 (transporter-overexpressing cells over EV control cells): mean (±SD, N): 2 min, HEK293
T3 sequence (O15244 1-555): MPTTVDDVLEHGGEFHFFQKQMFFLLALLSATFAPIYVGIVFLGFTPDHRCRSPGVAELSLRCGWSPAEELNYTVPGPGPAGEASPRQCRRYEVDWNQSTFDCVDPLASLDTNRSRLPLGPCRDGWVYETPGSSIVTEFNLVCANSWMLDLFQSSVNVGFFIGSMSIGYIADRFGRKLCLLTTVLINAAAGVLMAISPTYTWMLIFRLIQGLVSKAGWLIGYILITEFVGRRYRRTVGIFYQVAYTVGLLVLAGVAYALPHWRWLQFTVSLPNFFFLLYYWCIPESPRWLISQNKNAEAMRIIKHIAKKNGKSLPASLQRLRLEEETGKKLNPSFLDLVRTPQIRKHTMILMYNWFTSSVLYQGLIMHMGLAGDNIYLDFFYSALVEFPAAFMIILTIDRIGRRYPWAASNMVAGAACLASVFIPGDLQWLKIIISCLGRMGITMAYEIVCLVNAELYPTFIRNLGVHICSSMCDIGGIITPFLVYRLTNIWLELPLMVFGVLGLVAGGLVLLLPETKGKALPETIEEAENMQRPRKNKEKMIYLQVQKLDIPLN

[5] = molecular target: T4, MATE1 (SLC47A1) (Homo sapiens, UniProt Q96FL8); test: Cellular uptake into MATE1-overexpressing HEK293 cells vs EV control cells (HPLC-MS/MS); details: for uptake ratio MATE1 (transporter-overexpressing cells over EV control cells): mean (±SD, N): 2.5 μM substrate, 1 min, 30 mM NH4Cl preincubation, HEK293
T4 sequence (Q96FL8 1-570): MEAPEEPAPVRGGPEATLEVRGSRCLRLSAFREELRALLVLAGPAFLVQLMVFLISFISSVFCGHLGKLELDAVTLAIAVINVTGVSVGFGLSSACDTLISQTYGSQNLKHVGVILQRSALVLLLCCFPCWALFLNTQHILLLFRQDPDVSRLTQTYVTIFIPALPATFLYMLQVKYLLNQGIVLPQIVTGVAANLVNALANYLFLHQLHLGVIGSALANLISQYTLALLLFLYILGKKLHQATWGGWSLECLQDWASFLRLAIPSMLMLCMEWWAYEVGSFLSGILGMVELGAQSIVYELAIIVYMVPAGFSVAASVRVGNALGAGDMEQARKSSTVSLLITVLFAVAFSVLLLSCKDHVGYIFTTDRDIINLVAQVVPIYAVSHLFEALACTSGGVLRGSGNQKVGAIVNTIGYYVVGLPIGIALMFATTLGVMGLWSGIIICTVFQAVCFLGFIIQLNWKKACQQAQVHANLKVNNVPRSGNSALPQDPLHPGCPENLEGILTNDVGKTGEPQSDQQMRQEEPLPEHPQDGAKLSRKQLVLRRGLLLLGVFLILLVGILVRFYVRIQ

[6] = OCT2, net uptake, Michaelis–Menten

Compound: CN(CCCN)CCCN [3,3′-diamino-N-methyldipropylamin]
substrate activity at OCT1 (in words) [2]: did not show any substrate activity
substrate activity at MATE2-K (in words) [3]: did not show any substrate activity
substrate activity at OCT3 (in words) [1]: did not show any substrate activity

Compound: CCCCCN [amylamine]
uptake ratio OCT2 (transporter-overexpressing cells over EV control cells): mean (±SD, N) ([4]; 10 μM substrate): 6.7 (3.2, 4) ^a
uptake ratio OCT1 (transporter-overexpressing cells over EV control cells): mean (±SD, N) ([2]; 10 μM substrate): 1.2 (0.5, 4)
uptake ratio MATE2K (transporter-overexpressing cells over EV control cells): mean (±SD, N) [3]: 0.8 (0.3, 3)
uptake ratio OCT3 (transporter-overexpressing cells over EV control cells): mean (±SD, N) ([1]; 10 μM substrate): 0.9 (0.3, 4)
uptake ratio MATE1 (transporter-overexpressing cells over EV control cells): mean (±SD, N) [5]: 0.5 (0.2, 3) ^a

Compound: CC[C@H](C)[C@H](N)CO [(S)-(+)-isoleucinol]
uptake ratio OCT2 (transporter-overexpressing cells over EV control cells): mean (±SD, N) ([4]; 2.5 μM substrate (§)): 7.6 (1.5, 4) ^b
K m (±SEM) [4, 6]: 116 (±59) μM
v max (±SEM) [4, 6]: 1303 (±287) pmol/mg protein/min
K m (±SEM) ([4]; OCT2, net uptake, Michaelis–Menten, listed as isoleucinol): 116 µM
uptake ratio OCT1 (transporter-overexpressing cells over EV control cells): mean (±SD, N) ([2]; 2.5 μM substrate (§)): 1.0 (0.1, 4)
uptake ratio MATE2K (transporter-overexpressing cells over EV control cells): mean (±SD, N) [3]: 1.0 (0.1, 3)
uptake ratio OCT3 (transporter-overexpressing cells over EV control cells): mean (±SD, N) ([1]; 2.5 μM substrate (§)): 0.9 (0.1, 4)
uptake ratio MATE1 (transporter-overexpressing cells over EV control cells): mean (±SD, N) [5]: 1.1 (0.2, 3)

Further lines, results first:

stereoselectivity OCT3 (uptake ratio of the more strongly transported enantiomer divided by that of the other) ([1]; label = favoured enantiomer): 1.2-fold for (S)
Compound: C[C@H](N)CCO [(S)-3-aminobutan-1-ol]

uptake ratio OCT2 (transporter-overexpressing cells over EV control cells): mean (±SD, N) ([4]; 10 μM substrate): 6.4 (2.0, 5) ^b
uptake ratio MATE2K (transporter-overexpressing cells over EV control cells): mean (±SD, N) [3]: 1.2 (0.3, 4)
uptake ratio OCT3 (transporter-overexpressing cells over EV control cells): mean (±SD, N) ([1]; 10 μM substrate): 1.5 (1.0, 5)
uptake ratio MATE1 (transporter-overexpressing cells over EV control cells): mean (±SD, N) [5]: 1.0 (0.1, 4)
Compound: CCCCN [butylamine]

uptake ratio OCT2 (transporter-overexpressing cells over EV control cells): mean (±SD, N) ([4]; 10 μM substrate): 4.2 (3.1, 6) ^a
uptake ratio OCT1 (transporter-overexpressing cells over EV control cells): mean (±SD, N) ([2]; 10 μM substrate): 2.5 (1.9, 6)
uptake ratio MATE2K (transporter-overexpressing cells over EV control cells): mean (±SD, N) [3]: 1.4 (0.3, 4)
uptake ratio OCT3 (transporter-overexpressing cells over EV control cells): mean (±SD, N) ([1]; 10 μM substrate): 1.85 (1.17, 6)
uptake ratio MATE1 (transporter-overexpressing cells over EV control cells): mean (±SD, N) [5]: 1.0 (0.3, 4)
Compound: CCCCCCCN [heptylamine]

substrate activity at OCT2 (in words) [4]: did not show any substrate activity
substrate activity at OCT1 (in words) [2]: did not show any substrate activity
substrate activity at MATE2-K (in words) [3]: did not show any substrate activity
substrate activity at OCT3 (in words) ([1]; uptake ratio ≥2 = notable transport): did not show any substrate activity
substrate activity at MATE1 (in words) [5]: did not show any substrate activity
Compound: OCCNCCO [diethanolamine]
